From the supplement of paper PMC10307832

Experiments:
Test in all cases: relative viability (nuclei count vs DMSO), 5 days (fraction); higher = more cells survive
Kobe2602 + Foretinib = compound: C1=CC(=CC=C1NC(=S)NNC2=C(C=C(C=C2[N+](=O)[O-])C(F)(F)F)[N+](=O)[O-])F [Kobe2602] + COc1cc2c(Oc3ccc(NC(=O)C4(C(=O)Nc5ccc(F)cc5)CC4)cc3F)ccnc2cc1OCCCN1CCOCC1 [Foretinib] (partner 0.25 µM)
Summary of the method: (§1)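 Five library-drug doses in √10 steps were combined with a fixed anchor-drug dose, or a single drug was given alone, by pin tool to lung cancer cell lines in 1536-well plates the day after seeding. Nuclei were stained and counted after 5 days. Relative viability is the nuclei count in treated wells over that in vehicle wells, taken as the median of duplicate plates.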

Kobe2602 + Lapatinib = compound: C1=CC(=CC=C1NC(=S)NNC2=C(C=C(C=C2[N+](=O)[O-])C(F)(F)F)[N+](=O)[O-])F [Kobe2602] + CS(=O)(=O)CCNCc1ccc(-c2ccc3ncnc(Nc4ccc(OCc5cccc(F)c5)c(Cl)c4)c3c2)o1 [Lapatinib] (partner 2 µM)
Summary of the method: as §1

[1] = compound: COc1cc2nccc(Oc3ccc(NC(=O)C4(C(=O)Nc5ccc(F)cc5)CC4)cc3)c2cc1OC [Cabozantinib] + Cc1cc(Nc2cc(N3CCN(C)CC3)nc(Sc3ccc(NC(=O)C4CC4)cc3)n2)n[nH]1 [Tozasertib] (partner 0.1 µM)
Summary of the method: as §1

[2] = compound: COc1cc2nccc(Oc3ccc(NC(=O)C4(C(=O)Nc5ccc(F)cc5)CC4)cc3)c2cc1OC [Cabozantinib] + Nc1ncn([C@H]2C[C@H](O)[C@@H](CO)O2)c(=O)n1 [Decitabine] (partner 2 µM)
Summary of the method: as §1

| Cell Line | relative viability (Kobe2602 + Foretinib; first compound 0.2 µM) | relative viability (Kobe2602 + Foretinib; first compound 0.6325 µM) | relative viability (Kobe2602 + Foretinib; first compound 2 µM) | relative viability (Kobe2602 + Foretinib; first compound 6.325 µM) | relative viability (Kobe2602 + Foretinib; first compound 20 µM) | relative viability (Kobe2602 + Lapatinib; first compound 0.2 µM) | relative viability (Kobe2602 + Lapatinib; first compound 0.6325 µM) | relative viability (Kobe2602 + Lapatinib; first compound 2 µM) | relative viability (Kobe2602 + Lapatinib; first compound 6.325 µM) | relative viability (Kobe2602 + Lapatinib; first compound 20 µM) | relative viability ([1]; first compound 0.02 µM) | relative viability ([1]; first compound 0.06325 µM) | relative viability ([1]; first compound 0.2 µM) | relative viability ([1]; first compound 0.6325 µM) | relative viability ([1]; first compound 2 µM) | relative viability ([2]; first compound 0.02 µM) | relative viability ([2]; first compound 0.06325 µM) | relative viability ([2]; first compound 0.2 µM) | relative viability ([2]; first compound 0.6325 µM) | relative viability ([2]; first compound 2 µM) |
| --- | --- | --- | --- | --- | --- | --- | --- | --- | --- | --- | --- | --- | --- | --- | --- | --- | --- | --- | --- | --- |
| NCI-H2405 | 1.05 | 1.04 | 1.01 | 1.06 | 1.07 | 1.05 | 1.17 | 1.01 | 1.2 | 1.33 | 0.743 | 0.856 | 0.777 | 0.789 | 0.667 | 0.725 | 0.788 | 0.77 | 0.752 | 0.764 |
| NCI-H3122 | 0.969 | 0.88 | 0.967 | 0.925 | 0.967 | 1.04 | 0.981 | 1 | 1.03 | 1.06 | 0.412 | 0.431 | 0.385 | 0.42 | 0.458 | 0.394 | 0.413 | 0.422 | 0.411 | 0.467 |
| PC-3 [JPC-3] | 1.02 | 1.18 | 0.994 | 1.03 | 1.07 | 0.488 | 0.457 | 0.434 | 0.477 | 0.495 | 0.928 | 1.04 |  | 0.938 | 0.861 | 0.782 | 0.886 |  | 0.872 | 0.797 |
| PC-14 | 0.962 | 0.968 | 0.922 | 0.939 | 0.911 | 0.31 | 0.426 | 0.294 | 0.333 | 0.306 | 0.656 | 0.668 |  | 0.547 | 0.526 | 0.237 | 0.203 |  | 0.219 | 0.249 |
| RERF-LC-KJ | 0.878 | 0.952 | 0.828 | 0.777 | 0.763 | 0.851 | 0.842 | 0.809 | 0.697 | 0.831 | 0.588 | 0.51 | 0.505 | 0.438 | 0.412 | 0.717 | 0.735 | 0.649 | 0.666 | 0.746 |
| SK-LU-1 | 0.78 | 0.911 | 0.81 | 0.834 | 0.872 | 0.859 | 0.88 | 0.92 | 0.859 | 0.817 | 0.414 | 0.371 | 0.378 | 0.342 | 0.299 | 0.583 | 0.698 | 0.668 | 0.631 | 0.627 |
| SK-MES-1 | 0.922 | 0.99 | 0.918 | 0.99 | 0.898 | 0.465 | 0.488 | 0.427 | 0.436 | 0.464 | 1.09 | 0.991 | 0.999 | 0.927 | 0.753 | 0.449 | 0.412 | 0.373 | 0.431 | 0.399 |
| SW 1573 | 1.02 | 0.873 | 0.998 | 1 | 1.18 | 1.34 | 1.25 | 1.05 | 1.1 | 1.14 | 0.149 | 0.146 | 0.18 | 0.148 | 0.177 | 0.476 | 0.573 | 0.519 | 0.536 | 0.416 |
